Values quoted from earlier work as cited in patent US8367112B2, “Nanoparticulate carverdilol formulations” (Alkermes Pharma Ireland Limited, priority 2006, dated 2013).
Where two headings read alike, the source gives them in different places.

Tests used:
[1] = in vivo, po

Row | solubility (95% ethanol) | solubility (dimethylsulfoxide) | solubility (ethyl ether) | solubility (gastric fluid (simulated, TS, pH 1.1)) | solubility (intestinal fluid (simulated, TS without pancreatin, pH 7.5)) | solubility (isopropanol) | solubility (methanol) | solubility (methylene chloride) | solubility (water) | apparent mean terminal elimination half-life [1] [h] | plasma levels relative to S(−)-carvedilol [1] | SMILES
1 | sparingly soluble | freely soluble | slightly soluble | practically insoluble | practically insoluble | sparingly soluble | soluble | soluble | practically insoluble |  |  | COc1ccccc1OCCNCC(O)COc1cccc2[nH]c3ccccc3c12 (racemic) [carvedilol, (±)-1-(Carbazol-4-yloxy)-3-[[2-(o-methoxyphenoxy)ethyl]amino]-2-propanol]
2 |  |  |  |  |  |  |  |  |  | 7 to 11 |  | COc1ccccc1OCCNC[C@H](O)COc1cccc2[nH]c3ccccc3c12 (single isomer, unassigned) [S(−)-enantiomer, S(−)-carvedilol]
3 |  |  |  |  |  |  |  |  |  | 5 to 9 | 2-3 times higher | COc1ccccc1OCCNC[C@@H](O)COc1cccc2[nH]c3ccccc3c12 [R(+)-carvedilol]
